Results as given in US12344603B2 (Genentech, Inc., priority 2020, dated 2025).
Structures can show the parent of a compound that is named as a salt.

Target: IRE1α (Homo sapiens (Human), UniProt O75460, D688N)
Assay: IRE1α TR-FRET competition binding assay (IRE1α HTRF)
Details: TR-FRET competition binding to kinase domain of IRE1α
Method in brief: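 Kinase domain (0.25 nM) pre-bound to 2 nM Eu anti-His antibody for 1 h at 4° C in HEPES pH 7.5/MgCl2/Brij 35/DTT/gamma globulin buffer, then mixed with compounds and 2 nM Alexa 647 ATP-competitive probe. 1 h at room temperature; probe displacement read as TR-FRET (Ex 347 nm, Em 665/615 nm).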

IRE1α, sequence (O75460 547-977 D688N): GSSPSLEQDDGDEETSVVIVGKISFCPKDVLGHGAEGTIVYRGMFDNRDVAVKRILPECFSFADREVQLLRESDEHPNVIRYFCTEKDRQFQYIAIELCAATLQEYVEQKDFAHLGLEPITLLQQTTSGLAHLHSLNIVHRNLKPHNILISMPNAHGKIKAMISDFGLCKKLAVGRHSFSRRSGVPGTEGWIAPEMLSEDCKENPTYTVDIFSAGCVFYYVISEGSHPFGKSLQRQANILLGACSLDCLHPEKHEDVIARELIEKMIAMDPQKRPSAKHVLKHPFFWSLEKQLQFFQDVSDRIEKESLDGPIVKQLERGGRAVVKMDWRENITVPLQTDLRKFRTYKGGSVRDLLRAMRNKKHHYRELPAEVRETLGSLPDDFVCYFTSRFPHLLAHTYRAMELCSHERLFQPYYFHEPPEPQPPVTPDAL

Structure (SMILES) | IC50
CC(C)n1c(=O)c(-c2c(F)cc(NS(=O)(=O)Cc3ccc(F)cc3)cc2F)cc2cnc(N[C@@H]3CNC[C@@H](F)C3)nc21 [Compound 130, N-(3,5-Difluoro-4-(2-(((3S,5S)-5-fluoropiperidin-3-yl)amino)-8-isopropyl-7-oxo-7,8-dihydropyrido[2,3-d]pyrimidin-6-yl)phenyl)-1-(4-fluorophenyl)methanesulfonamide hydrochloride] | 0.38 nM
COc1nc(NS(=O)(=O)c2ccccc2Cl)ccc1-c1cc2cnc(N[C@H]3CC[C@H](N(C)C)CC3)nc2n(C(C)C)c1=O [Compound 131, 2-Chloro-N-(5-(2-(((1r,4r)-4-(dimethylamino)cyclohexyl)amino)-8-isopropyl-7-oxo-7,8-dihydropyrido[2,3-d]pyrimidin-6-yl)-6-methoxypyridin-2-yl)benzenesulfonamide] | 0.21 nM
Cc1nc(NS(=O)(=O)c2ccc(F)cc2)ccc1-c1cc2cnc(N[C@H]3CC[C@H](N(C)C)CC3)nc2n(C(C)C)c1=O [Compound 132, N-(5-(2-(((1r,4r)-4-(Dimethylamino)cyclohexyl)amino)-8-isopropyl-7-oxo-7,8-dihydropyrido[2,3-d]pyrimidin-6-yl)-6-methylpyridin-2-yl)-4-fluorobenzenesulfonamide] | 0.52 nM
Cc1nc(NS(=O)(=O)c2ccccc2Cl)ccc1-c1cc2cnc(N[C@H]3CC[C@H](N(C)C)CC3)nc2n(C(C)C)c1=O [Compound 135, 2-Chloro-N-(5-(2-(((1r,4r)-4-(dimethylamino)cyclohexyl)amino)-8-isopropyl-7-oxo-7,8-dihydropyrido[2,3-d]pyrimidin-6-yl)-6-methylpyridin-2-yl)benzenesulfonamide] | 0.43 nM
Cc1nc(NS(=O)(=O)c2ccccc2C#N)ccc1-c1cc2cnc(N[C@H]3CC[C@H](N(C)C)CC3)nc2n(C(C)C)c1=O [Compound 136, 2-Cyano-N-(5-(2-(((1r,4r)-4-(dimethylamino)cyclohexyl)amino)-8-isopropyl-7-oxo-7,8-dihydropyrido[2,3-d]pyrimidin-6-yl)-6-methylpyridin-2-yl)benzenesulfonamide] | 0.29 nM
CC(C)n1c(=O)c(-c2cc(F)c(NS(=O)(=O)Cc3cccnc3C(F)(F)F)c(F)c2F)cc2cnc(N[C@@H]3CNC[C@@H](F)C3)nc21 [Compound 139, N-(2,3,6-Trifluoro-4-(2-(((3S,5S)-5-fluoropiperidin-3-yl)amino)-8-isopropyl-7-oxo-7,8-dihydropyrido[2,3-d]pyrimidin-6-yl)phenyl)-1-(2-(trifluoromethyl)pyridin-3-yl)methanesulfonamide] | 0.27 nM
Cc1nc(NS(=O)(=O)c2ccccc2F)ccc1-c1cc2cnc(N[C@H]3CC[C@H](N(C)C)CC3)nc2n(C(C)C)c1=O [Compound 140, N-(5-(2-(((1r,4r)-4-(Dimethylamino)cyclohexyl)amino)-8-isopropyl-7-oxo-7,8-dihydropyrido[2,3-d]pyrimidin-6-yl)-6-methylpyridin-2-yl)-2-fluorobenzenesulfonamide] | 0.3 nM
CC(C)n1c(=O)c(-c2cc(F)c(NS(=O)(=O)Cc3ccc(F)cc3)c(F)c2F)cc2cnc(N[C@H]3CC[C@H](N(C)CCF)CC3)nc21 [Compound 141, 1-(4-Fluorophenyl)-N-(2,3,6-trifluoro-4-(2-(((1r,4r)-4-((2-fluoroethyl)(methyl)amino)cyclohexyl)amino)-8-isopropyl-7-oxo-7,8-dihydropyrido[2,3-d]pyrimidin-6-yl)phenyl)methanesulfonamide] | 0.18 nM
Cc1nc(NS(=O)(=O)c2cccc(C#N)c2)ccc1-c1cc2cnc(N[C@H]3CC[C@H](N(C)C)CC3)nc2n(C(C)C)c1=O [Compound 142, 3-Cyano-N-(5-(2-(((1r,4r)-4-(dimethylamino)cyclohexyl)amino)-8-isopropyl-7-oxo-7,8-dihydropyrido[2,3-d]pyrimidin-6-yl)-6-methylpyridin-2-yl)benzenesulfonamide] | 0.69 nM
CC(C)n1c(=O)c(-c2ccc(NS(=O)(=O)CCC(F)(F)F)nc2)cc2cnc(N[C@H]3CC[C@H](N(C)CCF)CC3)nc21 [Compound 143, 3,3,3-Trifluoro-N-(5-(2-(((1r,4r)-4-((2-fluoroethyl)(methyl)amino)cyclohexyl)amino)-8-isopropyl-7-oxo-7,8-dihydropyrido[2,3-d]pyrimidin-6-yl)pyridin-2-yl)propane-1-sulfonamide] | 0.3 nM
CC(C)n1c(=O)c(-c2ccc(NS(=O)(=O)c3ccccc3)nc2)cc2cnc(N[C@H]3CC[C@H](N(C)CCF)CC3)nc21 [Compound 144, N-(5-(2-(((1r,4r)-4-((2-Fluoroethyl)(methyl)amino)cyclohexyl)amino)-8-isopropyl-7-oxo-7,8-dihydropyrido[2,3-d]pyrimidin-6-yl)pyridin-2-yl)benzenesulfonamide] | 0.18 nM
Cc1nc(NS(=O)(=O)c2ccccc2Cl)ccc1-c1cc2cnc(N[C@H]3CC[C@H](N(C)CCF)CC3)nc2n(C(C)C)c1=O [Compound 145, 2-Chloro-N-(5-(2-(((1r,4r)-4-((2-fluoroethyl)(methyl)amino)cyclohexyl)amino)-8-isopropyl-7-oxo-7,8-dihydropyrido[2,3-d]pyrimidin-6-yl)-6-methylpyridin-2-yl)benzenesulfonamide] | 0.27 nM
CC(C)n1c(=O)c(-c2ccc(NS(=O)(=O)c3ccccc3Cl)nc2)cc2cnc(N[C@H]3CC[C@H](N(C)CCF)CC3)nc21 [Compound 146, 2-Chloro-N-(5-(2-(((1r,4r)-4-((2-fluoroethyl)(methyl)amino)cyclohexyl)amino)-8-isopropyl-7-oxo-7,8-dihydropyrido[2,3-d]pyrimidin-6-yl)pyridin-2-yl)benzenesulfonamide hydrochloride] | 0.16 nM

More lines, in order of falling IC50, values ahead:

IC50 | Structure (SMILES)
0.62 nM | Cc1nc(NS(=O)(=O)c2ccccc2Cl)ccc1-c1cc2cnc(N[C@@H]3CNC[C@@H](F)C3)nc2n(C(C)C)c1=O [Compound 133, 2-Chloro-N-(5-(2-(((3S,5S)-5-fluoropiperidin-3-yl)amino)-8-isopropyl-7-oxo-7,8-dihydropyrido[2,3-d]pyrimidin-6-yl)-6-methylpyridin-2-yl)benzenesulfonamide]
0.48 nM | Cc1cccc(S(=O)(=O)Nc2ccc(-c3cc4cnc(N[C@H]5CC[C@H](N(C)C)CC5)nc4n(C(C)C)c3=O)c(C)n2)c1F [Compound 137, N-(5-(2-(((1r,4r)-4-(Dimethylamino)cyclohexyl)amino)-8-isopropyl-7-oxo-7,8-dihydropyrido[2,3-d]pyrimidin-6-yl)-6-methylpyridin-2-yl)-2-fluoro-3-methylbenzenesulfonamide]
0.27 nM | CC(C)n1c(=O)c(-c2ccc(NS(=O)(=O)c3ccccc3Cl)nc2)cc2cnc(N[C@@H]3CNC[C@@H](F)C3)nc21 [Compound 147, 2-Chloro-N-(5-(2-(((3S,5S)-5-fluoropiperidin-3-yl)amino)-8-isopropyl-7-oxo-7,8-dihydropyrido[2,3-d]pyrimidin-6-yl)pyridin-2-yl)benzenesulfonamide]
0.26 nM | CC(C)n1c(=O)c(-c2ccc(NS(=O)(=O)c3ccccc3OC(F)(F)F)nc2)cc2cnc(N[C@H]3CC[C@H](N(C)C)CC3)nc21 [Compound 150, N-(5-(2-(((1r,4r)-4-(Dimethylamino)cyclohexyl)amino)-8-isopropyl-7-oxo-7,8-dihydropyrido[2,3-d]pyrimidin-6-yl)pyridin-2-yl)-2-(trifluoromethoxy)benzenesulfonamide]
0.23 nM | CC(C)n1c(=O)c(-c2ccc(NS(=O)(=O)c3ccccc3C#N)nc2)cc2cnc(N[C@H]3CC[C@H](N(C)CCF)CC3)nc21 [Compound 148, 2-Cyano-N-(5-(2-(((1r,4r)-4-((2-fluoroethyl)(methyl)amino)cyclohexyl)amino)-8-isopropyl-7-oxo-7,8-dihydropyrido[2,3-d]pyrimidin-6-yl)pyridin-2-yl)benzenesulfonamide]
0.19 nM | CC(C)n1c(=O)c(-c2ccc(NS(=O)(=O)C3CCCC3)c(F)c2)cc2cnc(N[C@H]3CC[C@H](N(C)C)CC3)nc21 [Compound 134, N-(4-(2-(((1r,4r)-4-(Dimethylamino)cyclohexyl)amino)-8-isopropyl-7-oxo-7,8-dihydropyrido[2,3-d]pyrimidin-6-yl)-2-fluorophenyl)cyclopentanesulfonamide hydrochloride]
0.19 nM | COCCN(C)[C@H]1CC[C@H](Nc2ncc3cc(-c4ccc(NS(=O)(=O)CCC(F)(F)F)c(F)c4)c(=O)n(C(C)C)c3n2)CC1 [Compound 138, 3,3,3-Trifluoro-N-(2-fluoro-4-(8-isopropyl-2-(((1r,4r)-4-((2-methoxyethyl)(methyl)amino)cyclohexyl)amino)-7-oxo-7,8-dihydropyrido[2,3-d]pyrimidin-6-yl)phenyl)propane-1-sulfonamide]
0.19 nM | CC(C)n1c(=O)c(-c2ccc(NS(=O)(=O)CC3CC(F)(F)C3)c(F)c2)cc2cnc(N[C@H]3CC[C@H](N(C)C)CC3)nc21 [Compound 151, 1-(3,3-Difluorocyclobutyl)-N-(4-(2-(((1r,4r)-4-(dimethylamino)cyclohexyl)amino)-8-isopropyl-7-oxo-7,8-dihydropyrido[2,3-d]pyrimidin-6-yl)-2-fluorophenyl)methanesulfonamide]
0.15 nM | CC(C)n1c(=O)c(-c2c(F)cc(NS(=O)(=O)Cc3ccc(F)cc3)c(F)c2F)cc2cnc(N[C@H]3CC[C@H](N(C)C)CC3)nc21 [Compound 128, N-(4-(2-(((1r,4r)-4-(Dimethylamino)cyclohexyl)amino)-8-isopropyl-7-oxo-7,8-dihydropyrido[2,3-d]pyrimidin-6-yl)-2,3,5-trifluorophenyl)-1-(4-fluorophenyl)methanesulfonamide]
0.08 nM | CC(C)n1c(=O)c(-c2c(F)cc(NS(=O)(=O)Cc3ccc(F)cc3)cc2F)cc2cnc(N[C@H]3CC[C@H](N(C)C)CC3)nc21 [Compound 129, N-(4-(2-(((1r,4r)-4-(Dimethylamino)cyclohexyl)amino)-8-isopropyl-7-oxo-7,8-dihydropyrido[2,3-d]pyrimidin-6-yl)-3,5-difluorophenyl)-1-(4-fluorophenyl)methanesulfonamide hydrochloride]
